Positions of bridges follow the written chain, without caps; N, C: chain ends. Residues, ends and D or L forms follow the SMILES beside them. Chains are numbered I, II in the order given. No end group written: not given here.
Legend:
46BR.1N fibroblasts = type: cell-based, human; details: 0.1, 1 and 10 µg / ml after 48h and 72h
Method: (§1) The effect of PDGF derivatives (PDGF1, […]1, PDGF2, PGDF3, PDGF2_NE, PDGF2-HTT) on the proliferation of immortalized human 46BR.1N skin fibroblast cells, HaCaT skin keratinocytes (for each peptide 4 experimental cycles for HaCaT and 46BR.1N cells) and primary skin fibroblasts (for each peptide 4 experimental cycles, usingcells isolated from 4 patients) was investigated. Their cytotoxicity to these cells was also checked. The cells were incubated with peptides previously dissolved in double-distilled, sterile water. Proliferation tests (XTT test) were performed at the following concentrations: 0.01, 0.1, 1, 10, 25, 50, 100 and 150 μg / ml. Cytotoxicity tests (LDH) were performed at concentrations of 50, 100 and 150 μg / ml.

HaCaT keratinocytes = type: cell-based, human
Method: as §1

primary skin fibroblasts = assay: XTT proliferation test; type: cell-based, human
Method: as §1

[1] = tested on: human primary dermal fibroblasts; assay: Chemotaxis through culture inserts, calcein fluorometry; type: cell-based; details: 1 µg / ml, 24 hours of incubation
Method: The effect of the compound PDGF2 compound at a concentration of 1 µg / ml on the chemotaxis of HaCaT keratinocytes, and the effect of PDGF2 and PDGF3 at a concentration of 1 µg / ml on the chemotaxis of primary fibroblasts, were investigated. Cells were "starved" in serum-free medium for 24 hours before the experiment. They were then seeded in serum-free medium in culture inserts (Grainer bio one, 8 µm) placed in a 24-well plate. Serum-free medium containing PDGF2 or PDGF3 was added to the wells. Controls in the test were: serum free medium and medium containing 10% FBS. After 24 hours of incubation, the cells were stained with calcein. Cells that migrated through the insert membrane were then detached with trypsin and a fluorometric measurement was performed (excitation wavelength 485, emission wavelength 520 nm).

dendritic cells = type: cell-based, human
Method: Tests were conducted on human peripheral blood mononuclear cells (PBMC), isolated from "buffy coats" using a ficoll density gradient (histopaque, Sigma). Following two wash steps (in PBS), erythrocyte lysis and cell counting (cell counter, Bio-Rad), the PBMCs were seeded onto a 24-well culture plate at a density of 1 mln cells/1 ml of RPMI 1640 (P/S, 10% FBS)/well. Thecells were then allowed to adapt to the culture conditions for the next 24h. After cell resting, PDGF2 was added to the wells in a final concentration of 1.0 µg/ml, and the cells were incubated for the next 48h under appropriate conditions (37°C, 5% CO2). The untreated cells constituted a negative control, whereas cells stimulated with LPS (1 µg/ml) and PHA (2,5 µg/ml) were a positive control. After incubation, the PBMCs were collected, washed with PBS, counted and prepared for flow cytometry analysis under the following conditions: 10^4 cells/ 100µl were stained with monoclonal, fluorochrome-stained antibodies (anti-CD3, CD4, CD8, CD16, CD56, CD25, CD69, CD71, HLA-DR, CD11c, CD80, CD83). Following 30 min of incubation at RT in the dark, the cells were analyzed using a flow cytometer (LSRFortessa, BD).
An analysis of peptide impact on the activity of immune cells was performed on human PBMCs. These cells were incubated with PDGF2 (1.0 ug/ml) for 48h and the effects of stimulation were evaluated by flow cytometry. […]

[2] = XTT test, 0.01 to 150 µg / ml tested, result in words

| activation of dendritic cells (CD80, CD83) (dendritic cells) | Compound | increase in proliferation relative to control (46BR.1N fibroblasts) | increase in proliferation relative to control (HaCaT keratinocytes; 0.1, 1, 10 and 25 µg / ml after 48h, 0.1, 1, 10, 25, 50, 100 and 150 µg / ml after 72h) | inhibition of proliferation (HaCaT keratinocytes; [2]) | increase in proliferation relative to control (primary skin fibroblasts; 1, 10, 25 and 50 µg / ml after 48h and 72h) | inhibition of proliferation (primary skin fibroblasts; [2]) | effect on chemotaxis [1] |
| --- | --- | --- | --- | --- | --- | --- | --- |
|  | CC[C@H](C)[C@H](NC(=O)[C@H](CC(C)C)NC(=O)[C@@H](N)CCCNC(=N)N)C(=O)N[C@@H](CC(=O)O)C(=O)N[C@@H](CCCNC(=N)N)C(=O)N[C@H](C(=O)N[C@@H](CC(N)=O)C(=O)N[C@@H](C)C(=O)N[C@@H](CC(N)=O)C(=O)N[C@@H](Cc1ccccc1)C(=O)N[C@@H](CC(C)C)C(=O)NCCCC[C@H](NC(=O)[C@H](CCCNC(=N)N)NC(C)=O)C(=O)N[C@H](C(=O)N[C@@H](CCC(=O)O)C(=O)N[C@H](C(=O)N[C@H](C(=O)N[C@@H](CCCNC(=N)N)C(=O)N[C@@H](CCCCN)C(=O)N[C@@H](CCCCN)C(=O)N1CCC[C@H]1C(=O)N[C@H](C(=O)N[C@@H](Cc1ccccc1)C(N)=O)[C@@H](C)CC)C(C)C)[C@@H](C)CC)[C@@H](C)CC)[C@@H](C)O [PDGF3] (I: Ac-RKIEIVRKKPIF-NH2 / II: H-RLIDRTNANFL; amide I:2-II:C) | 20-40% | 20-120% | does not inhibit the proliferation | 10-60% | does not inhibit the proliferation | inhibit the chemotaxis |
| not activated | RLIDRTNANFL-NH2 [PDGF2, R^1L^2I^3D^4R^5T^6N^7A^8N^9F^10L^11-NH2] |  |  |  |  |  |  |
